Results reported in patent US20110208162A1, “METHODS FOR PREVENTING AGGREGATION OF ADIPOSE STROMAL CELLS” (Indiana University Rsearch and Technology Corporation, priority 2008, published 2011).
Entries after “also recorded” stand apart in the source; their conditions may differ.

Columns and labels:
ASCs = test: Aggregation of fresh SVF or cultured ASCs in suspension buffer; format: cell-based, porcine or human; conditions: for concentration dependence of inhibition of ASC aggregation: EDTA detached ASCs, 2 hours vigorous shaking
Procedure: SVF was isolated from either excised dorsal hump (porcine) or lipoaspirated subcutaneous (human) adipose tissues using reagents and protocols supplied by Tissue Genesis Inc. (TGI). Cells were used either fresh or after enrichment for stromal cells, containing adipose-derived stem cells (ADSC), by attachment to and growth on uncoated tissue culture plastic. Low passage (P1-P4) cultured ASCs were detached from plastic by 2 mM EDTA treatment. 2−3×10^6 fresh SVF or cultured ASCs were incubated for increasing times in 1 ml of TGI suspension buffer, containing human serum proteins, under varying conditions as indicated in Figure legends. Cell suspensions were vigorously rocked during incubation. At the times indicated the suspensions were observed macroscopically, noting aggregate size and number, as well as microscopically, to quantitate aggregates (defined as a tightly associated grouping of 4 or more cells) as well as individual cells.

ASC = ASC proliferation in presence of heparin; format: cell-based
freshly isolated ASC = test: Observation of aggregation of freshly isolated ASC after resuspension in delivery medium; format: cell-based, pig; conditions: pre-treating SVF with heparin before infusion
Procedure: Isolation of the adipose stromal-vascular fraction (SVF). Fat was isolated using equipment and reagents from TGI-100 kits (Tissue Genesis, Inc, Honolulu, Hi., USA) following the manufacturer's instructions, with modifications as necessary in order to process the subcutaneous pig fat. Briefly, the fat was finely minced in a sterile container before washing 3 times with the supplied buffer solution. The fat was transferred into 50 ml conical screw cap centrifuge tubes before adding 10 ml of filtered ADIPASE™ solution. The tissue was dissociated by incubation in an Enviro-Genie incubator shaker for 2.5 hours, instead of the manufacturer's recommended digestion time for human fat of 45 minutes. The stromal-vascular pellet was recovered by centrifugation, filtered serially through 100 μm then 40 μm diameter pore size polypropylene filters (FALCON®). Viable cell counts were obtained using a hemacytometer and staining was performed with Trypan blue. Only cells larger than approximately 8 μm in diameter were counted. The cells were resuspended in a 20 ml cell the supplied suspension medium immediately before delivery. In the ASC-H group, the suspension medium contained 50 U heparin/ml. The cells were continuously mixed gently by hand until loaded into the syringe for delivery.
Preparative yield of ASC. […]

## O=C(O)CN(CCN(CC(=O)O)CC(=O)O)CC(=O)O [EDTA, ethylenediaminetetra-acetic acid]
ASCs; EDTA then 7 mM Ca^2+
  effect of EDTA on aggregation with co-addition of Ca^2+: reversed
ASCs; cultured ASCs, EDTA during incubation
  cell aggregation with EDTA in the buffer: inhibited; also recorded: blocked

## heparin
ASCs; 400 μg/ml
  aggregation at the highest concentration used: still persisted
ASCs
  concentration dependence of inhibition of ASC aggregation: dose dependent
ASCs; listed as Heparin
  concentration dependence of inhibition of ASC aggregation: concentration dependent
ASCs; equals 100 U/ml
  most effective concentration used for inhibition of ASC aggregation: 400 µg/mL
ASCs; heparin 400 μg/ml final conc. in buffer
  aggregation of cells: inhibits
ASCs; small 4-10 cells, large >10 cells, Image J counts
  formation of aggregates of all sizes: blocked
ASC; highest concentration, 400 μg/ml
  ASC proliferation: totally inhibited
ASC; lowest concentration used, 50 μg/ml
  ASC proliferation: inhibitory
Freshly isolated ASC
  aggregation and subsequent microinfarctions: substantially diminished

## trypsin
ASCs; cultured ASCs, trypsin for 2 minutes
  cell aggregation after trypsin pretreatment: inhibited; also recorded: blocked
